Our source for the Wasserlöslichkeiten values is patent EP0047459A2, “Fluorescent reagent and immunofluorescent determination method” (INTERNATIONAL DIAGNOSTIC TECHNOLOGY, INC., priority 1980, dated 1982).

This data set in a line: Comparison of water solubilities of haptens, modified haptens and gentamicin reaction products. It is filed as physicochemical. From the text: In der Tabelle III werden die Wasserlöslichkeiten der Haptene Phenobarbital und Diphenylhydantoin in unveränderter Form, in modifizierter Form (carboxyliert bzw. aminiert) und in der sogenannten konjugierten Form, nämlich als Umsetzungsprodukt mit Gentamicin gegenübergestellt. Hieraus ergibt sich, daß die Haptene in unveränderter und in modifizierter Form hydrophob sind (Die Unlöslichkeit in Wasser ist ein Maß für die Hydrophobie einer Verbindung). Mit steigender Unlöslichkeit der Verbindungen in Wasser steigt die Hydrophobie und die Wahrscheinlichkeit, daß sie an die Oberfläche gebunden werden, wobei durch die unspezifischen Bindungen große Ungenauigkeiten in der Immunofluoreszenz-Bestimmungsmethode verursacht werden. Wie aus der Tabelle III weiterhin ersichtlich, erhält man ein lösliches, d.h. hydrophiles Produkt, wenn man ein hydrophobes Hapten wie Phenobarbital oder Diphenylhydantoin mit einer hydrophilen Verbindung wie Gentamicin verbindet. Derartige Produkte werden nicht als solche an die feste Oberfläche gebunden.

Like-named read-outs stand apart in the source and are kept apart here.

For `O=C1NC(=O)C(c2ccccc2)(c2ccccc2)N1` [Diphenyl-hydantoin, Diphenylhydantoin], the Wasserlöslichkeiten entry is reported as “unlöslich”.
Regarding `CCC1(c2ccccc2)C(=O)NC(=O)NC1=O` [Phenobar-bital, Phenobarbital], where the note is “in water, insolubility is taken as a measure of hydrophobicity”, the Wasserlöslichkeiten result is “unlöslich”.
